≈ marks a conversion by molar mass, not a printed value. Read-outs that look alike come from different tables or passages of the source. *1 amine or outer side, *2 acyl side, *3 side chain or, on linkers, in order; H or OH if unused. Where a SMILES comes first, the peptide text is derived from it. [ ]: non-standard residue; d: D form. GlyΨ(Thz) = O=C(c1csc(CN[*:1])n1)[*:2]; X1 = O=C(c1ccc(CN[*:1])[nH]1)[*:2]; X3 = O=C(c1coc(CN[*:1])n1)[*:2]
Columns and labels:
[1] = biological target: DNA gyrase (MG 1655 A2B2) (Escherichia coli, UniProt P0AES4+P0AES6); test: biochemical; set-up: species or system E. coli
Description: (§5) GyrA and GyrB were added to a solution containing 35 mM Tris.HCl (pH, 7.5), 24 mM KCl, 4 mM MgCl2, 1.8 mM spermidine, 6.5% glycerol, 0.36 mg/mL BSA, 9 μg/mL tRNA, 5 mM DTT, 2 mM ATP and 24 nM relaxed pBR322 DNA. […] The reactions were incubated at 25° C., and at each time point 30-μl aliquots were quenched with 1 μL of 10% SDS. An equal volume of chloroform/isoamyl alcohol (24:1) and a half volume of loading buffer STEB (40% sucrose/100 mM Tris.HCl, pH 7.5/100 mM EDTA/2 mg/ml bromophenol blue) were added, and the mixtures then were vortexed and centrifuged for 1 min at 13,000 rpm. The aqueous phase was loaded onto 1% agarose, TAE (40 mM Tris-acetate, 1 mM EDTA) gels and were run at either 30 V overnight in TAE (in the cold room) or 70 V for 2.5 hours. The gels were stained for about 20 min in TAE containing 1 μg/ml ethidium bromide followed by destaining in multiple washes of TAE.

[2] = biological target: T1, DNA gyrase (Escherichia coli, UniProt P0AES4+P0AES6); format: biochemical, E. coli; details: for Cleavage (IC50 μM): Table 4; for IC50 cleavage: Table 5-C
Description: GyrA and GyrB were added to solutions containing 35 mM Tris.HCl (pH, 7.5), 24 mM KCl, 4 mM MgCl2, 1.8 mM spermidine, 6.5% glycerol, 0.36 mg/mL BSA, 9 μg/mL tRNA, 5 mM DTT, 2 mM ATP and 10 nM relaxed pBR322 DNA. […] The reactions were incubated at 25° C., and at each time point 30-μl aliquots were quenched with 1 μL of 10% SDS and 2 μL of 2 mg/ml proteinase K. Quenched aliquots were kept on ice until the experiment was completed, at which time they were incubated at 37° C. for half an hour. An equal volume of chloroform/isoamyl alcohol (24:1) and a half volume of loading buffer STEB (40% sucrose/100 mM Tris HCl, pH 7.5/1 mM EDTA/2 mg/ml bromophenol blue) were added, and the mixtures then were vortexed and centrifuged for 1 min at 13,000 rpm. The aqueous phase was loaded onto 1% agarose, TAE (40 mM Tris-acetate, 1 mM EDTA) gels that contained 1 μg/ml ethidium bromide and were run at either 30 V overnight in TAE containing 1 μg/ml ethidium bromide (in the cold room) or 70 V for 2.5 hours in TAE containing 1 μg/ml ethidium bromide.

[3] = biological target: DNA gyrase A2B2 (Escherichia coli, UniProt P0AES4+P0AES6); test: biochemical; format: biochemical, E. coli
Description: Relaxation assays were performed in a manner analogous to that described by Pierrat et al., 2005. Briefly, relaxation assays were performed as for the supercoiling assay but with some modifications: ATP and spermidine were omitted. Gyr A and Gyr B were added to a solutions containing 35 mM of Tris.HCl (pH=7.5), 24 mM of KCl, 4 mM of MgCl2, 1.8 mg/mL of spermidine, 6.5% of glycerol, 0.36 mg/mL of BSA, 9 μg/mL of tRNA, 5 mM of DTT, 2 mM of ATP and 24 nM of relaxed pBR322 DNA. […] The amount of DMSO was kept constant at 3.33%. The reactions were incubated at 25° C., and at each time point 30 μL aliquots were quenched with the addition of an equal volume of chloroform/isoamyl alcohol (24:1) and a half volume of loading buffer STEB (40% sucrose/100 mM Tris HCl, pH 7.5/100 mM EDTA/2 mg/mL bromophenol blue). The mixtures then were vortexed and centrifuged for 1 minute at 13,000 rpm. The aqueous phase was loaded onto 1% agarose, TAE (40 mM Tris-acetate, 1 mM EDTA) gels and were run at either 30 V overnight in TAE (in the cold room) or 70 V for 2.5 hours in TAE. The gels were stained for about 20 minutes in TAE containing 1 μg/mL ethidium bromide followed by destaining in multiple washes of TAE. The data were analysed using Syngel software.

[4] = biological target: DNA gyrase MG1655 wild type A2B2 (Escherichia coli, UniProt P0AES4+P0AES6); test: biochemical; set-up: species or system E. coli; details: for ATPase % inhibition at saturation: Table 4
Description: ATP hydrolysis by DNA gyrase was linked to the oxidation of NADH using a pyruvate Kinase (PK)/lactate dehydrogenase (LDH) coupled enzyme assay and measured at 340 nm on a Spectramax Plus Microplate. […] Each 100 μL reaction contained 50 mM Tris.HCl (pH 7.5), 24 mM KCl, 5 mM MgCl2, 6.5% (w/w) glycerol, 4 mM dithiotreitol, 0.4 mM NADH, 0.8 mM phosphorenol-pyruvate, 1% (w/w) PK/LDH mixture (Sigma), 51 nM-153 nM gyrase enzyme and the drug tested at varying concentrations. DMSO was kept constant at 2%. The reactions were measured in the presence or absence of linear DNA pBR322 at fixed concentration of 8.4 nM. Reactions were initiated by the addition of 10 mM Mg.ATP and measured at 25° C. over 1.5 hours.
DNA-dependent ATPase reactions were tested with the wild type enzyme A2B2 and the W751R mutant enzyme. In these DNA-dependent ATPase assays, the concentration of wild type A2B2 is 51 nM, the concentration of W751R mutant enzyme is 106 nM.
Experimental data were fitted and treated with the following equation:
where L represents the inhibitor concentration, v represents the rate of the ATPase reaction, and v0 represents the rate in absence of inhibitor. The IC50 is deduced from the equation 2:

[5] = biological target: Wheatgerm topoisomerase I (Triticum aestivum, UniProt A0A3B6RK19); test: Wheatgerm topoisomerase I-mediated relaxation assay; format: biochemical
Description: Wheatgerm topoisomerase I-mediated relaxation assays were performed as per the manufacturer's instructions. Topoisomerase I (2 nM) was added to reactions containing 50 mM Tris. HCl pH 7.5, 50 mM NaCl, 0.1 mM EDTA, 1 mM DTT, 20% glycerol, 4.6 nM of […] pBR322 DNA, and inhibitor where appropriate.
(§1) All in vitro reactions were incubated at 37° C. for 30 minutes. The DMSO concentration in each reaction was kept constant at 3.33%. Reactions were quenched with the addition of an equal volume of phenol/chloroform/isoamyl alcohol (25:24:1) and one tenth volume of loading buffer containing 40% sucrose, 100 mM Tris.HCl pH 7.5, 100 mM EDTA, 2 mg/mL bromophenol blue. The proteins were precipitated by vortexing, followed by centrifugation for 5 minutes at 16 000 g. The aqueous phase was loaded onto 1% agarose gels in Tris-acetate and were electrophoresed at 60 V for three hours in Tris-acetate buffer. The gels were stained in 1 μg/mL ethidium bromide. The gels were visualised using UV light and were documented and analysed using Syngene software.

[6] = biological target: T2, Human topoisomerase I (Homo sapiens, UniProt P11387); test: Human topoisomerase I-mediated relaxation assay; format: biochemical
T2 construct: purchased TopoGEN Inc. (Port Orange, Fla., USA)
T2 sequence (P11387 1-765): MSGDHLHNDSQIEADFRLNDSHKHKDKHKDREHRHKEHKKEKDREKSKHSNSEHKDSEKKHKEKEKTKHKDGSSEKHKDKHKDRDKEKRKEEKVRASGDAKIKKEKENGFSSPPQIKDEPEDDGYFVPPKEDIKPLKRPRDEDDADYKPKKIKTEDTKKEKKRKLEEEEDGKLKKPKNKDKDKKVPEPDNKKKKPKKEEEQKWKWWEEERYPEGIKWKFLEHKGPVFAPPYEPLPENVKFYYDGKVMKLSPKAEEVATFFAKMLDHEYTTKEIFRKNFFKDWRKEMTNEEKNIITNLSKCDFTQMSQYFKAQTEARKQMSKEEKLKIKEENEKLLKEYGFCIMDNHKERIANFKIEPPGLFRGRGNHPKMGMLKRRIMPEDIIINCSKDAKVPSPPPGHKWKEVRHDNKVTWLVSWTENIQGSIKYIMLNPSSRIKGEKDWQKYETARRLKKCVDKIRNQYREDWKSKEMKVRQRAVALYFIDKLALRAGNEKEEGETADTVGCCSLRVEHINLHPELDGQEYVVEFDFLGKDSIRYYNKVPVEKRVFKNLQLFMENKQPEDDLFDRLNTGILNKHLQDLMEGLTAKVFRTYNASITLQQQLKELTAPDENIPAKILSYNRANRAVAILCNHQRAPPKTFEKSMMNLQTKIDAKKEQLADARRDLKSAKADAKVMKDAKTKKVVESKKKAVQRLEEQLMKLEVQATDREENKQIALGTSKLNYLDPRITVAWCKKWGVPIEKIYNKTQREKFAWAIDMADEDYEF
Description: Human topoisomerase I-mediated relaxation assays were performed as per the manufacturer's instructions. Topoisomerase I (2 nM) was added to reactions containing 10 mM of Tris.HCl, pH 7.9, 150 mM NaCl, 100 μM spermidine.HCl, 5% glycerol, 0.1% BSA, 4.6 nM of […] pBR322 DNA, and inhibitor where appropriate.
as §1

[7] = biological target: T3, E. coli Topoisomerase IV (Escherichia coli, UniProt P0AFI2+P20083); test: biochemical; set-up: purchased John Innes Enterprises (Norwich, UK)
Description: (§6) Topoisomerase IV-mediated relaxation assays and decatenation assays were performed as previously described (see Peng and Marians, 1993). […] Decatenation assays contained topoisomerase IV (4 nM), 40 mM Tris HCl pH 7.5 at 30° C., 6 mM MgCl2, 10 mM DTT, 1 mM spermidine.HCl, 100 mM potassium glutamate, 0.5 mM ATP, 0.5 mg/mL BSA, 200 ng of kinetoplast DNA, and inhibitor where appropriate.

[8] = biological target: T3, E. coli Topoisomerase IV; test: biochemical; format: biochemical; set-up: purchased John Innes Enterprises (Norwich, UK)
Description: as §6

[9] = biological target: T4, Human topoisomerase IIα (Homo sapiens, UniProt P11388); test: Human Topoisomerase IIα-mediated relaxation assay; format: biochemical; set-up: purchased TopoGEN Inc. (Port Orange, Fla., USA)
Description: (§2) Human Topoisomerase IIα-mediated relaxation assays and decatenation assays were performed as per the manufacturer's instructions in a total of 20 μL. Relaxation assays contained Topoisomerase IIα (4.3 nM), 50 mM Tris.HCl pH 8,120 mM KCl, 10 mM MgCl2, 0.5 mM DTT, 0.5 mM ATP, 4.6 nM of supercoiled pBR322 DNA, and inhibitor where appropriate. Decatenation assays substituted the supercoiled DNA with 200 ng catenated kinetoplast DNA.
as §1

[10] = biological target: T4, Human topoisomerase IIα; test: Human Topoisomerase IIα decatenation assay; format: biochemical; set-up: purchased TopoGEN Inc. (Port Orange, Fla., USA)
Description: as §2, §1

[11] = biological target: T1, DNA gyrase; test: biochemical; set-up: species or system E. coli; details: for IC50 SC gyrase: Table 5-C
[12] = biological target: DNA gyrase W751R A2B2 (Escherichia coli, UniProt P0AES4+P0AES6, W751R); test: Supercoiling in vitro assay, W751R mutant enzyme; format: biochemical, E. coli
Description: as §5

[13] = Solubility
[14] = tested on: HT-29 cells; test: cells; format: cell-based, human; details: MTT, 24 hours; read-out: In vivo HT29 Cells (approximate IC50)
Description: (§3) Human cell cultures were initiated from frozen cell stocks (the gift of Dr J. Gavrilovic, UEA). The HT-29 line is derived from a colorectal adenocarcinoma while HeLa cells are derived from a cervical epithelial adenocarcinoma (see FIG. 35). Both human cell lines form adherent cultures and were maintained at 37° C. in T25 culture vessels as 10 mL cultures in CO2 Independent Media containing 10% foetal bovine serum (EU approved), 4 mM L-glutamine, penicillin/streptomycin (Invitrogen). A subcultivation ratio of 1:3 and 1:6 were maintained for HT-29 and HeLa lines respectively. Media was renewed every three days.
(§4) The assay to determine the effects of the heterocyclic compounds on mammalian cells is based on the cleavage of the yellow tetrazolium salt MTT to purple formazoan crystals by metabolically active cells (Roche). After incubation with MTT and solubilization, the resulting coloured solution is quantified using a scanning spectrophotometer. Each of the cell lines was trypsinised and resuspended in fresh media prior to transfer to sterile flat-bottomed microtitre plates (200 μL per well) and allowed to recover for 16 hours. Five thousand HT-29 or 7500 HeLa cells per 100 μL culture medium were incubated in the presence of the drugs in various concentrations (totalling 10 μL) for 24 hours. Cell viability was then determined by addition of MTT reagent (20 μL) in each well, as per manufacturer's instructions and incubated for a further 4 hours. Solubilization solution (100 μL) was added per well and the plates incubated overnight at 37° C. The plates were read in a spectrophotometer (scanning from 500-650 nm, signal peak at 570 nm). A representative result is illustrated in FIG. 36.

[15] = tested on: HeLa cells; test: cells; format: cell-based, human; details: MTT, 24 hours; read-out: In vivo HeLa Cells (approximate IC50)
Description: as §3, §4

[16] = biological target: DNA gyrase W751R mutant A2B2 (Escherichia coli, UniProt P0AES4+P0AES6, W751R); format: biochemical, E. coli
Description: ATP hydrolysis by DNA gyrase was linked to the oxidation of NADH using a pyruvate Kinase (PK)/lactate dehydrogenase (LDH) coupled enzyme assay and measured at 340 nm on a Spectramax Plus Microplate. […] DMSO was kept constant at 2%.
DNA-dependent ATPase reactions were tested with the wild type enzyme A2B2 and the W751R mutant enzyme.

[17] = tested on: A. thaliana ecotype Columbia seeds; test: Seed germination of A. thaliana; format: in vivo, Arabidopsis thaliana; details: 36 hours; 100 μM Peptide 1; 5 μM CFX
Description: The microcin derivatives were tested for efficacy in planta against Arabidopsis thaliana ecotype Columbia according to known methods (see Wall et al., 2004).

[18] = tested on: pBR322 DNA
Description: Other compounds like Ethidium Bromide (EtBr), MccB17 and Ciprofloxacin (CFX) were also tested as controls. In this assay, negatively supercoiled pBR322 was relaxed by topoisomerase I in the presence or the absence of the putative DNA intercalative compound. […] Sample reactions were performed in the same buffer used for the DNA relaxation of DNA gyrase (Pierrat & Maxwell, 2003). […] In one set of reactions, negatively supercoiled pBR322 DNA was relaxed at 37° C. for 30 minutes, then intercalative agent was added, i.e., the substrate of the assay was relaxed. In a second set of reactions, the intercalative agent was incubated with the DNA in reaction buffer at 37° C. for 15 minutes prior to the addition of topoisomerase I, i.e., the substrate of the assay was negatively supercoiled. […] Samples were incubated for 60 minutes at 37° C., followed by treatment with 1% SDS and 0.3 mg/mL proteinase K at 37° C. for 30 minutes. Reactions were terminated and samples were prepared for agarose gel electrophoresis as previously described (Heddle et al., 2001). Each reaction product was separated on 1% agarose gel, followed by staining in 1 μg/mL ethidium bromide.

[19] = Supercoiling (IC50 μM) MG 1655 A2B2, Table 4
[20] = Topo IIα Human, R (relaxation reaction) IC50

T4 sequence (P11388 whole entry): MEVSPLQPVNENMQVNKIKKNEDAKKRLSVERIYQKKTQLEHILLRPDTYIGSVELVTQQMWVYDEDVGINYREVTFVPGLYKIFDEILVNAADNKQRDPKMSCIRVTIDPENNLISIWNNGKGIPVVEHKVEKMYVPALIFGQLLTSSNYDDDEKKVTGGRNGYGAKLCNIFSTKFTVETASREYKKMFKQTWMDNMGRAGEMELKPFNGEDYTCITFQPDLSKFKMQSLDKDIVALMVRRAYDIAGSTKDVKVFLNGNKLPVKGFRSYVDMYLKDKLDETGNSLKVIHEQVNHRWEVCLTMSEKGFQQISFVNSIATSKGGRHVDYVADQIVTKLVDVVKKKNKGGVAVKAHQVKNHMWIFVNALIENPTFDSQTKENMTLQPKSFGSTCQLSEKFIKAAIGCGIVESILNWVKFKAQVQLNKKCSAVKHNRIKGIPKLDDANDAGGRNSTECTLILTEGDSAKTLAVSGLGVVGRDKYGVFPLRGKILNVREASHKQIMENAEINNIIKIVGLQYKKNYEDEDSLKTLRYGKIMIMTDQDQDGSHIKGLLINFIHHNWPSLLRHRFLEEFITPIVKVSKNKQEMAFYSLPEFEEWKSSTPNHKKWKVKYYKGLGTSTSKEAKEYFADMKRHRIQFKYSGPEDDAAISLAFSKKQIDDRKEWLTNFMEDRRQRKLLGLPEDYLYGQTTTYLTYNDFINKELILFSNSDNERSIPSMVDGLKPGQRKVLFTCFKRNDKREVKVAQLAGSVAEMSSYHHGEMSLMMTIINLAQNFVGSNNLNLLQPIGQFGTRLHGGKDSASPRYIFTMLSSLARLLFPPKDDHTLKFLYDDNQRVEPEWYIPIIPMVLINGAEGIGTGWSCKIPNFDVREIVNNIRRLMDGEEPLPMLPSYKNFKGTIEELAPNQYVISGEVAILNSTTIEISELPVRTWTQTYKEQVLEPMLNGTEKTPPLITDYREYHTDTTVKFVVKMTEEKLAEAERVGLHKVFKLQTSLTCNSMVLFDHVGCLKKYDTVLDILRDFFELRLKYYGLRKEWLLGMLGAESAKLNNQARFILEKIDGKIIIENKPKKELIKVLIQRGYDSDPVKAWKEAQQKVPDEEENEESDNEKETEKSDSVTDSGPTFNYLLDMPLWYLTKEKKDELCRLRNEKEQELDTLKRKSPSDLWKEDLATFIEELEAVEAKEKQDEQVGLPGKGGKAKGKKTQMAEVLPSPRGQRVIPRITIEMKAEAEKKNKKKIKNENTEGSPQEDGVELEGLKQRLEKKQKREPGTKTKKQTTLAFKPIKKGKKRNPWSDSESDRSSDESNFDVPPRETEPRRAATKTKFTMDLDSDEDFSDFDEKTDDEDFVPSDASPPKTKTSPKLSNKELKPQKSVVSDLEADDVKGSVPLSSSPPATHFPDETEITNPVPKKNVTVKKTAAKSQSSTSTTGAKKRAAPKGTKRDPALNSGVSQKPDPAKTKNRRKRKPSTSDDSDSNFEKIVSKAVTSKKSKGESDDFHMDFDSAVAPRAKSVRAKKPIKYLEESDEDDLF
T3 sequence (P20083 whole entry): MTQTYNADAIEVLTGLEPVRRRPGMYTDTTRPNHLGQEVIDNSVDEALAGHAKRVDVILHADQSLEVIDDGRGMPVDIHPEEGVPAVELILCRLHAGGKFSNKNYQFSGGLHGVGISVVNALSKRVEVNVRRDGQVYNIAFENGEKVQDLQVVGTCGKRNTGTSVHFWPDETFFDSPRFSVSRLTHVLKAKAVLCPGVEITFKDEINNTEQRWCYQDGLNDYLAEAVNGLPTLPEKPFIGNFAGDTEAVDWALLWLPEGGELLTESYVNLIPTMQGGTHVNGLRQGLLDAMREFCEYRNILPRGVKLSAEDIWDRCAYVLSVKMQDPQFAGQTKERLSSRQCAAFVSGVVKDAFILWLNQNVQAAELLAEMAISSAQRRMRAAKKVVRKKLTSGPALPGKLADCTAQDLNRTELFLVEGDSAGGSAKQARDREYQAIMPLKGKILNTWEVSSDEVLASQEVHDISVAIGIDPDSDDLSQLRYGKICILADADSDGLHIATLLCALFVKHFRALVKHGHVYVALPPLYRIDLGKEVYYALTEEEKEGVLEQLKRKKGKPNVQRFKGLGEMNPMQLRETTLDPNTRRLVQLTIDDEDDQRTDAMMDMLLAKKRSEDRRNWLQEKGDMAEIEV
T3 sequence (P0AFI2 whole entry): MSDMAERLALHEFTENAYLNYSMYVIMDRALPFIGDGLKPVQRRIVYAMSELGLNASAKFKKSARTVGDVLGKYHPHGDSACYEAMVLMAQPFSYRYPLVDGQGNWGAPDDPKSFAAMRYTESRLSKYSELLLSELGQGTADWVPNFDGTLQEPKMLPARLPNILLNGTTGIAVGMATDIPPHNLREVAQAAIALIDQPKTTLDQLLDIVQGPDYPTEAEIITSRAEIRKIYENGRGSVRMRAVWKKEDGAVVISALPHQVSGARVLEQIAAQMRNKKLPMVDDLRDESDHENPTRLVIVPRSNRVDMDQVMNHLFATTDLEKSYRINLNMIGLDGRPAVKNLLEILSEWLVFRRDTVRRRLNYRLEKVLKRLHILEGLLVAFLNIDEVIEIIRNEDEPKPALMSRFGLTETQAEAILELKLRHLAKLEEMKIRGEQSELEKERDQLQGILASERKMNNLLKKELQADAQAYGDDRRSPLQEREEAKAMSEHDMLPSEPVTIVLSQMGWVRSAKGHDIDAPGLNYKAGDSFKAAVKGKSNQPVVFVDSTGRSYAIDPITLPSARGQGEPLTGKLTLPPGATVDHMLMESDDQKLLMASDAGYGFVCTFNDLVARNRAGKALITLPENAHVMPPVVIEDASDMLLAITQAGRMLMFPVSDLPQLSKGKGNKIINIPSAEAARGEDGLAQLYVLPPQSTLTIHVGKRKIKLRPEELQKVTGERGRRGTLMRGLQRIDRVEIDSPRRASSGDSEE
Chain of Wheatgerm topoisomerase I (A0A3B6RK19 entry or part of it): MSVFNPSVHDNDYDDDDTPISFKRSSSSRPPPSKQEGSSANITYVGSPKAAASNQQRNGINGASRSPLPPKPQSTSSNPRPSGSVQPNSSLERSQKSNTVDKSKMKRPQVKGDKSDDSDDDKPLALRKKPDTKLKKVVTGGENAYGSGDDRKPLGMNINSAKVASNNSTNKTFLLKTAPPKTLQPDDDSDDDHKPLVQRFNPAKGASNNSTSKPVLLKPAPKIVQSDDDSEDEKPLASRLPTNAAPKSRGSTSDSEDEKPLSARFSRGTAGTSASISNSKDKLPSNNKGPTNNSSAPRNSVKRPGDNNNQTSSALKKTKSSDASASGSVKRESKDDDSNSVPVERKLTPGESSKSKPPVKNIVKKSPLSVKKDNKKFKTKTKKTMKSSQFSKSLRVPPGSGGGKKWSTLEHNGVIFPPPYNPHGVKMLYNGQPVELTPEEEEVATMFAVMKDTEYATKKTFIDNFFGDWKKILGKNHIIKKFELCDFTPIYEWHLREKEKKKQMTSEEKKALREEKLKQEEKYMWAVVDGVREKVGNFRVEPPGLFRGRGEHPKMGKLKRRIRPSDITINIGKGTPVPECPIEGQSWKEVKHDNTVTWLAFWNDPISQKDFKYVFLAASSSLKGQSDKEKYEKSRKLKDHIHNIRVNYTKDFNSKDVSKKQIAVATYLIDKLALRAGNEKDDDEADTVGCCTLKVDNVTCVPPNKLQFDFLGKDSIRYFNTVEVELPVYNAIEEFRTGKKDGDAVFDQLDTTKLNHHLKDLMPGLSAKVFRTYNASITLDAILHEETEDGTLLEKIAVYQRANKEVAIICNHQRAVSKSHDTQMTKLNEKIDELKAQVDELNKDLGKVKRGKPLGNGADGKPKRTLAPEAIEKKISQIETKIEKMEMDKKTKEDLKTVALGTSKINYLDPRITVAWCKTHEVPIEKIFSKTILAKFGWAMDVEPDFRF

SMILES: CC(NC(=O)CNC(=O)CNC(=O)c1csc(CNC(=O)C(C)NC(=O)CNC(=O)C(N)CCC(N)=O)n1)C(=O)O (stereo not drawn) [Peptide 5] (H-QGA[GlyΨ(Thz)]GGA-OH; configuration not given here)
- IC50 [1, 19]: 15 µM
- Cleavage (IC50 μM) [2]: inactive
- IC50 [3]: 15 µM
- IC50 [4]: 15 µM
- ATPase % inhibition at saturation [4]: 40%
- Topo I Wheatgerm IC50 [5]: inhibited
- Topo I Human IC50 [6]: inhibited
- IC50 [7]: < 10 µM
- Topo IV, D (decatenation reaction) IC50 [8]: exquisitely sensitive
- IC50 [9, 20]: < 20 µM
- Topo IIα Human, D (decatenation reaction) IC50 [10]: exquisitely sensitive

SMILES: CC(C)(C)OC(=O)NCc1nc(-c2nc(C(=O)O)cs2)co1 [#7]
- IC50 SC gyrase [11]: Inactive

SMILES: CC(NC(=O)CNC(=O)CNC(=O)c1ccc(CNC(=O)C(C)NC(=O)CNC(=O)C(N)CCC(N)=O)[nH]1)C(=O)O (stereo not drawn) [Peptide 1] (H-QGA[X1]GGA-OH; configuration not given here)
- IC50 [1, 19]: 68 µM
- IC50 ([1]; inhibition of supercoiling IC50, [A2B2] 13.2 nM, incubated up to 4 h): < 75 µM
- IC50 [12]: > 200 µM
- Cleavage (IC50 μM) [2]: inactive
- IC50 [3]: 68 µM
- IC50 [4]: 37 µM
- ATPase % inhibition at saturation [4]: 15%
- Topo I Wheatgerm IC50 [5]: inhibited
- Topo I Human IC50 [6]: inhibited
- times more soluble than MccB17 [13]: at least 20 times
- solubility ([13]; water with 2% DMSO): 1000 µM (≈ 582 µg/mL)
- IC50 [7]: < 10 µM
- Topo IV, D (decatenation reaction) IC50 [8]: exquisitely sensitive
- IC50 [9, 20]: < 20 µM
- Topo IIα Human, D (decatenation reaction) IC50 [10]: exquisitely sensitive

SMILES: CC(NC(=O)CNC(=O)CNC(=O)c1coc(CNC(=O)C(C)NC(=O)CNC(=O)C(N)CCC(N)=O)n1)C(=O)O (stereo not drawn) [Peptide 4] (H-QGA[X3]GGA-OH; configuration not given here)
- Supercoiling (IC50 μM) MG 1655 A2B2 ([1]; Table 4): Slow
- Cleavage (IC50 μM) [2]: inactive
- IC50 [9, 20]: 225 µM

SMILES: CC(C)(C)OC(=O)NCc1nc(C(=O)O)cs1 [Peptide 5]
- IC50 [11]: 75 µM
- IC50 [6]: 40 µM
- IC50 [14]: ~15 µM
- IC50 [15]: ~75 µM
- IC50 [7]: > 75 µM
- IC50 [8]: 20 µM
- IC50 [9, 20]: 15 µM
- IC50 [10]: < 5 µM

SMILES: C[C@H](NC(=O)CNC(=O)CNC(=O)c1coc(CNC(=O)[C@H](C)NC(=O)CNC(=O)[C@@H](N)CCC(N)=O)n1)C(=O)O [Peptide 4] (H-QGA[X3]GGA-OH)
- IC50 cleavage [2]: No
- IC50 [11]: 400 µM
- IC50 [6]: > 300 µM
- IC50 [14]: > 75 µM
- IC50 [15]: > 75 µM
- IC50 [7]: > 300 µM
- IC50 [8]: 175 µM
- IC50 [9, 20]: 225 µM
- IC50 [10]: < 50 µM

SMILES: CC(C)(C)OC(=O)NCc1nc(C(=O)O)cs1 [#5]
- Topo I Human IC50 [6]: only inhibited human topoisomerase I
- Topo IV, D (decatenation reaction) IC50 [8]: exquisitely sensitive
- IC50 ([9]; read-out: Topo IIα Human, R (relaxation reaction) IC50): < 20 µM
- Topo IIα Human, D (decatenation reaction) IC50 [10]: exquisitely sensitive

SMILES: O=C(O)c1cn(C2CC2)c2cc(N3CCNCC3)c(F)cc2c1=O [Ciprofloxacin, reference compound]
- inhibition of DNA-dependent ATPase of wild type enzyme ([4]; FIG. 18, 0.5 and 1.0 μM): slow down
- inhibition of DNA-independent ATPase of wild type enzyme ([4]; FIG. 18, no DNA): does not inhibit
- inhibition of DNA-independent ATPase of W751R mutant enzyme ([16]; FIG. 18, no DNA): does not inhibit
- inhibition of DNA-dependent ATPase of W751R mutant A2B2 ([16]; W751R enzyme 106 nM, + DNA): slow down
- germination of A. thaliana ecotype Columbia seeds [17]: growth is inhibited immediately after germination
- concentration producing a weak intercalative property [18]: 50 µM

SMILES: C[C@H](NC(=O)CNC(=O)CNC(=O)c1csc(CNC(=O)[C@H](C)NC(=O)CNC(=O)[C@@H](N)CCC(N)=O)n1)C(=O)O [Peptide 5] (H-QGA[GlyΨ(Thz)]GGA-OH)
- IC50 cleavage [2]: No
- IC50 [3]: 40 µM
- IC50 [11]: 25 µM
- IC50 [6]: 25 µM
- IC50 [14]: ~15 µM
- IC50 [15]: ~75 µM
- IC50 [9, 20]: 7 µM
- IC50 [10]: < 2.5 µM

SMILES: CC(C)(C)OC(=O)NCc1nc(-c2nc(C(=O)O)co2)cs1 [#8]
- IC50 SC gyrase [11]: Inactive
